# Measured values reported in ChEMBL document CHEMBL1201862, “PubChem BioAssay data set” (2004).
#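 Growth conditions: 96-well plates. Treatment: test compound, 48 hours, 5 concentrations. Analysis: linear interpolation between bracketing concentrations; unreached endpoints set to highest concentration. GI50: concentration for 50% inhibition of growth.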 Calls of active or inactive are those of the source. Cut-off read from the data, not from the text of the source: active = GI50 up to about 1.1 µM and inactive = higher.
# Legend:
# Test in all cases: DTP human tumour cell line panel, 48 h
# [1] = tested on: A549
# [2] = tested on: NCI-H23
# [3] = tested on: SK-OV-3
# [4] = tested on: NCI-H460
# [5] = tested on: COLO 205
# [6] = tested on: CCRF-CEM
# [7] = tested on: TK-10
# [8] = tested on: ACHN
# [9] = tested on: MCF7
# [10] = tested on: BT-549
# [11] = tested on: PC-3
# [12] = tested on: SR
# [13] = tested on: MOLT-4
# [14] = tested on: UACC-257
# [15] = tested on: 786-0
# [16] = tested on: HL-60
# [17] = tested on: IGROV-1
# [18] = tested on: Malme-3M
# [19] = tested on: A498
# [20] = tested on: SF-268
# [21] = tested on: HOP-92
# [22] = tested on: HCC 2998
# [23] = tested on: K562
# [24] = tested on: OVCAR-4
# [25] = tested on: M14
# [26] = tested on: MDA-N
# [27] = tested on: HCT-15
# [28] = tested on: OVCAR-3
# [29] = tested on: NCI/ADR-RES
# [30] = tested on: UACC-62
# [31] = tested on: SK-MEL-2
# [32] = tested on: SN12C
# [33] = tested on: T47D
# [34] = tested on: SNB-75
# [35] = tested on: Hs-578T
# [36] = tested on: NCI-H226
# [37] = tested on: MDA-MB-231
# [38] = tested on: OVCAR-8
# [39] = tested on: MDA-MB-435
# [40] = tested on: SK-MEL-28
# [41] = tested on: KM12
# [42] = tested on: SNB-19
# [43] = tested on: SK-MEL-5
# [44] = tested on: UO-31
# [45] = tested on: NCI-H522
# [46] = tested on: CAKI-1
# [47] = tested on: DU-145
# [48] = tested on: RPMI-8226
# [49] = tested on: SW-620
# [50] = tested on: SF-539
# [51] = tested on: HT-29
# [52] = tested on: OVCAR-5
# [53] = tested on: U-251
# [54] = tested on: HCT-116
# [55] = tested on: HOP-62
# [56] = tested on: RXF 393
# [57] = tested on: LOX IMVI
# [58] = tested on: SF-295
# [59] = tested on: EKVX
compound,measurement,setting,value
COc1ccc(/C=C2\N=C(c3ccccc3)N(NC3=NC(=O)CC(=O)N3)C2=O)cc1,GI50,[1],> 100 µM (inactive)
same,GI50,[2],> 100 µM (inactive)
same,GI50,[3],> 100 µM (inactive)
same,GI50,[4],> 100 µM (inactive)
same,GI50,[5],> 100 µM (inactive)
same,GI50,[6],39.2 µM (inactive)
same,GI50,[7],> 100 µM (inactive)
same,GI50,[8],> 100 µM (inactive)
same,GI50,[9],20.4 µM (inactive)
same,GI50,[10],> 100 µM (inactive)
same,GI50,[11],> 100 µM (inactive)
same,GI50,[12],> 100 µM (inactive)
same,GI50,[13],> 100 µM (inactive)
same,GI50,[14],> 100 µM (inactive)
same,GI50,[15],> 100 µM (inactive)
same,GI50,[16],> 100 µM (inactive)
same,GI50,[17],> 100 µM (inactive)
same,GI50,[18],> 100 µM (inactive)
same,GI50,[19],> 100 µM (inactive)
same,GI50,[20],> 100 µM (inactive)
same,GI50,[21],> 100 µM (inactive)
same,GI50,[22],> 100 µM (inactive)
same,GI50,[23],> 100 µM (inactive)
same,GI50,[24],> 100 µM (inactive)
same,GI50,[25],> 100 µM (inactive)
same,GI50,[26],> 100 µM (inactive)
same,GI50,[27],> 100 µM
same,GI50,[28],> 100 µM (inactive)
same,GI50,[29],> 100 µM (inactive)
same,GI50,[30],> 100 µM (inactive)
same,GI50,[31],> 100 µM (inactive)
same,GI50,[32],> 100 µM (inactive)
same,GI50,[33],> 100 µM (inactive)
same,GI50,[34],> 100 µM (inactive)
same,GI50,[35],> 100 µM (inactive)
same,GI50,[36],> 100 µM (inactive)
same,GI50,[37],> 100 µM (inactive)
same,GI50,[38],> 100 µM (inactive)
same,GI50,[39],> 100 µM (inactive)
same,GI50,[40],> 100 µM (inactive)
same,GI50,[41],> 100 µM (inactive)
same,GI50,[42],> 100 µM (inactive)
same,GI50,[43],> 100 µM (inactive)
same,GI50,[44],> 100 µM (inactive)
same,GI50,[45],> 100 µM (inactive)
same,GI50,[46],> 100 µM (inactive)
same,GI50,[47],> 100 µM (inactive)
same,GI50,[48],> 100 µM (inactive)
same,GI50,[49],> 100 µM (inactive)
same,GI50,[50],> 100 µM (inactive)
same,GI50,[51],> 100 µM (inactive)
same,GI50,[52],> 100 µM (inactive)
same,GI50,[53],> 100 µM (inactive)
same,GI50,[54],> 100 µM (inactive)
same,GI50,[55],> 100 µM (inactive)
same,GI50,[56],> 100 µM (inactive)
CCC1CC(C)C(O)/C=C/C=C/CC(C)OC(=O)CC(O)C(OC)C1OC1OC(C)CC(O)(C(C)=O)C1O (stereo unspecified),GI50,[1],> 100 µM (inactive)
same,GI50,[2],45.2 µM (inactive)
same,GI50,[3],> 100 µM (inactive)
same,GI50,[5],63.1 µM (inactive)
same,GI50,[6],46.5 µM (inactive)
same,GI50,[7],60.8 µM (inactive)
same,GI50,[8],49.5 µM (inactive)
same,GI50,[9],40.3 µM (inactive)
same,GI50,[10],40.6 µM (inactive)
same,GI50,[11],66.1 µM (inactive)
same,GI50,[12],14.1 µM (inactive)
same,GI50,[13],21.7 µM (inactive)
same,GI50,[14],37.9 µM (inactive)
same,GI50,[15],> 100 µM (inactive)
same,GI50,[16],21.8 µM (inactive)
same,GI50,[17],> 100 µM (inactive)
same,GI50,[18],38.8 µM (inactive)
same,GI50,[19],77.4 µM (inactive)
same,GI50,[20],83.6 µM (inactive)
same,GI50,[21],> 100 µM (inactive)
same,GI50,[22],21.7 µM (inactive)
same,GI50,[24],8.47 µM (inactive)
same,GI50,[25],78.5 µM (inactive)
same,GI50,[26],36.4 µM (inactive)
same,GI50,[27],23.9 µM
same,GI50,[28],20.3 µM (inactive)
same,GI50,[57],> 100 µM (inactive)
same,GI50,[29],49 µM (inactive)
same,GI50,[30],> 100 µM (inactive)
same,GI50,[31],39.1 µM (inactive)
same,GI50,[32],42.1 µM (inactive)
same,GI50,[33],51.4 µM (inactive)
same,GI50,[34],15.5 µM (inactive)
same,GI50,[35],19.7 µM (inactive)
same,GI50,[36],47.6 µM (inactive)
same,GI50,[37],16 µM (inactive)
same,GI50,[38],> 100 µM (inactive)
same,GI50,[39],> 100 µM (inactive)
same,GI50,[40],> 100 µM (inactive)
same,GI50,[58],> 100 µM (inactive)
same,GI50,[41],35.2 µM (inactive)
same,GI50,[42],19.3 µM (inactive)
same,GI50,[43],69 µM (inactive)
same,GI50,[44],47.3 µM (inactive)
same,GI50,[45],13.3 µM (inactive)
same,GI50,[46],13.1 µM (inactive)
same,GI50,[47],96.6 µM (inactive)
same,GI50,[48],48.8 µM (inactive)
same,GI50,[49],> 100 µM (inactive)
same,GI50,[50],78.9 µM (inactive)
same,GI50,[51],59.4 µM (inactive)
same,GI50,[52],> 100 µM (inactive)
same,GI50,[53],60.4 µM (inactive)
same,GI50,[54],> 100 µM (inactive)
same,GI50,[55],39.7 µM (inactive)
same,GI50,[56],44.7 µM (inactive)
same,GI50,[59],57.7 µM (inactive)
CCCCCCCCCCCCCCCCNc1nc(=O)n(C2OC(C)C(O)C2O)cc1F (stereo unspecified),GI50,[1],23.1 µM (inactive)
same,GI50,[2],18 µM (inactive)
same,GI50,[3],22.9 µM (inactive)
same,GI50,[4],17 µM (inactive)
same,GI50,[5],24.4 µM (inactive)
same,GI50,[6],16.3 µM (inactive)
same,GI50,[7],16.8 µM (inactive)
same,GI50,[8],15.5 µM (inactive)
same,GI50,[9],17 µM (inactive)
same,GI50,[10],19.7 µM (inactive)
same,GI50,[11],13.2 µM (inactive)
same,GI50,[12],23.9 µM (inactive)
same,GI50,[13],20.2 µM (inactive)
same,GI50,[14],20.5 µM (inactive)
same,GI50,[15],19.9 µM (inactive)
same,GI50,[16],14.5 µM (inactive)
same,GI50,[17],17.6 µM (inactive)
same,GI50,[18],23.1 µM (inactive)
same,GI50,[19],19.5 µM (inactive)
same,GI50,[20],20 µM (inactive)
same,GI50,[21],22.9 µM (inactive)
same,GI50,[22],16.9 µM (inactive)
same,GI50,[24],22.1 µM (inactive)
same,GI50,[25],17.2 µM (inactive)
same,GI50,[26],19.1 µM (inactive)
same,GI50,[27],14.9 µM
same,GI50,[28],17.5 µM (inactive)
same,GI50,[57],24.3 µM (inactive)
same,GI50,[29],18.9 µM (inactive)
same,GI50,[30],15.6 µM (inactive)
same,GI50,[31],18.9 µM (inactive)
same,GI50,[32],21.9 µM (inactive)
same,GI50,[33],21.1 µM (inactive)
same,GI50,[34],18.5 µM (inactive)
same,GI50,[35],21.8 µM (inactive)
same,GI50,[36],21 µM (inactive)
same,GI50,[37],20.7 µM (inactive)
same,GI50,[38],21.8 µM (inactive)
same,GI50,[39],15.5 µM (inactive)
same,GI50,[40],19.2 µM (inactive)
same,GI50,[58],20.8 µM (inactive)
same,GI50,[41],17.4 µM (inactive)
same,GI50,[42],18.8 µM (inactive)
same,GI50,[43],18.5 µM (inactive)
same,GI50,[44],14 µM (inactive)
same,GI50,[45],18.7 µM (inactive)
same,GI50,[46],21.1 µM (inactive)
same,GI50,[47],19.5 µM (inactive)
same,GI50,[48],10.6 µM (inactive)
same,GI50,[49],19.9 µM (inactive)
same,GI50,[50],18.2 µM (inactive)
same,GI50,[51],17.2 µM (inactive)
same,GI50,[52],20.6 µM (inactive)
same,GI50,[53],23.7 µM (inactive)
same,GI50,[54],18.4 µM (inactive)
same,GI50,[55],16.4 µM (inactive)
same,GI50,[56],20.7 µM (inactive)
same,GI50,[59],18.4 µM (inactive)
